Assay: molar heat capacity at constant volume
Conditions: Liquid, Vacuum adiabatic calorimetry

C=C(F)C(F)(F)F [2,3,3,3-tetrafluoro-1-propene]
Conditions	molar heat capacity at constant volume [J/K/mol]
240.93 K, 2261 kPa	92.26
241.09 K, 2247 kPa	91.8
243.43 K, 4295 kPa	92.26
243.57 K, 4255 kPa	92.26
245.94 K, 6342 kPa	92.37
246.04 K, 6272 kPa	92.15
248.38 K, 8336 kPa	92.72
248.49 K, 8272 kPa	93.06
250.77 K, 10288 kPa	93.29
250.92 K, 10256 kPa	93.4
255.49 K, 1804 kPa	95.79
255.68 K, 1821 kPa	96.48
257.93 K, 3569 kPa	97.51
258.1 K, 3572 kPa	96.48
260.34 K, 5312 kPa	97.62
260.51 K, 5317 kPa	97.16
262.77 K, 7065 kPa	97.51
262.92 K, 7055 kPa	98.53
265.3 K, 8891 kPa	98.65
265.35 K, 8807 kPa	98.87
267.77 K, 10554 kPa	98.87
267.88 K, 10750 kPa	99.22
270.17 K, 12276 kPa	99.56
271.12 K, 1842 kPa	101.38
273.54 K, 1673 kPa	102.07
273.64 K, 3435 kPa	101.5
275.98 K, 3181 kPa	102.07
276.14 K, 5012 kPa	101.27
278.43 K, 4690 kPa	101.95
278.65 K, 6595 kPa	102.3
280.94 K, 6231 kPa	102.64
281.16 K, 8178 kPa	101.61
283.46 K, 7781 kPa	102.75
283.66 K, 9754 kPa	102.52
285.91 K, 9285 kPa	102.98
286.19 K, 11346 kPa	103.09
288.36 K, 10789 kPa	104.01
289.3 K, 1701 kPa	105.15
291.52 K, 1716 kPa	105.72
291.84 K, 3037 kPa	105.49
294.09 K, 3043 kPa	106.4
294.38 K, 4378 kPa	105.37
296.67 K, 4372 kPa	106.4
296.96 K, 5740 kPa	105.49
299.24 K, 5702 kPa	106.97
299.7 K, 7182 kPa	105.94
301.83 K, 7034 kPa	106.86
302.46 K, 8635 kPa	106.74
304.42 K, 8365 kPa	107.54
305.12 K, 10039 kPa	106.29
307.01 K, 9699 kPa	108
307.78 K, 11440 kPa	106.97
309.61 K, 11035 kPa	108.34
310.44 K, 12837 kPa	107.54
312.2 K, 12365 kPa	108.8
312.59 K, 3164 kPa	108.57
315.28 K, 1983 kPa	109.37
315.29 K, 4301 kPa	108.8
317.99 K, 5437 kPa	108.91
318.03 K, 3065 kPa	109.71
320.68 K, 6570 kPa	110.62
320.8 K, 4151 kPa	110.05
323.36 K, 7700 kPa	110.28
323.57 K, 5240 kPa	110.62
326.04 K, 8827 kPa	110.62
326.35 K, 6332 kPa	111.42
328.72 K, 9952 kPa	112.22
329.14 K, 7427 kPa	112.67
331.41 K, 11079 kPa	112.9
331.93 K, 8524 kPa	113.36
334.09 K, 12201 kPa	113.24
334.72 K, 9619 kPa	113.47
337.49 K, 10709 kPa	113.7
340.26 K, 11796 kPa	114.61
